The subject of the experiment is T1, L. (L.) amazonensis cathepsin B.
T1 construct: gene CPC; native enzyme in amastigote lysate (hamster lesion amastigotes), not purified; activity defined by cathepsin B substrate and CA074
The format is biochemical, Leishmania amazonensis. The settings on record: substrate Abz-Gly-Ile-Val-Arg-Ala-Lys(Dnp)-OH 10 µM; pH 5.0, 37 °C, 2 mM DTT.

Structures are written as SMILES.

For `CCCNC(=O)[C@H]1O[C@@H]1C(=O)N[C@H](C(=O)N1CCC[C@H]1C(=O)O)[C@@H](C)CC` [CA074], 700 ± 80 nM corresponded to half-maximal inhibition (IC50).

These data come from paper PMC3352823, “In Vitro and In Vivo Activity of a Palladacycle Complex on Leishmania (Leishmania) amazonensis” (PLoS Neglected Tropical Diseases, 2012).
